Results as given in patent US20230365563A1, “QUINAZOLINE COMPOUND AND APPLICATION THEREOF” (SHANGHAI PHARMACEUTICALS HOLDING CO., LTD., priority 2020, published 2023).
Counter-ions that a name gives are not always drawn.

Columns and labels:
KRAS_G12D and cRAF = target: T1, KRAS_G12D and cRAF (Homo sapiens, UniProt P01116, G12D); assay: Inhibition of KRAS_G12D/cRAF binding (Cisbio binding kit, 665/615 ratio), Effect Embodiment B; conditions: read-out: GTP-KRAS-G12D:CRAF IC50
T1 construct: purchased
Method in brief: (§1)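 Duplicate wells received an eleven-point, threefold compound titration whose top point was the stock solution; final DMSO 1%.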

KRAS_WT and SOS1 = target: T2, KRAS_WT and SOS1 (Homo sapiens, UniProt P01116); assay: Inhibition of KRAS_WT/SOS1 binding (Cisbio binding kit, 665/615 ratio), Effect Embodiment C; conditions: read-out: GTP-KRAS-WT:SOS1 IC50
T2 construct: purchased
Method in brief: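 Compounds tested as 3-fold, 11-point dilutions in duplicate at 1% DMSO final against the KRAS_WT/SOS1 binding system. IC50 derived by nonlinear regression fit.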

KRAS-G12D and SOS1 = target: T3, KRAS-G12D and SOS1 (Homo sapiens, UniProt P01116, G12D); assay: Inhibition of KRAS-G12D/SOS1 binding (Cisbio binding kit, 665/615 ratio), Effect Embodiment A; conditions: read-out: GTP-KRAS-G12D:SOS1 IC50
T3 construct: purchased
Method in brief: as §1

T2 sequence (P01116 1-188 isoform P01116-2): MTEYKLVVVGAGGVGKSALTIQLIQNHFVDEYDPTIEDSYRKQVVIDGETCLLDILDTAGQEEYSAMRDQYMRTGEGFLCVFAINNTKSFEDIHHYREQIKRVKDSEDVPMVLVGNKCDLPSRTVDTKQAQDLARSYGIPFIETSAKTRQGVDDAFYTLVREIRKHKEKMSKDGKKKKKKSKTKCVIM
T3 sequence (P01116 1-188 isoform P01116-2 G12D): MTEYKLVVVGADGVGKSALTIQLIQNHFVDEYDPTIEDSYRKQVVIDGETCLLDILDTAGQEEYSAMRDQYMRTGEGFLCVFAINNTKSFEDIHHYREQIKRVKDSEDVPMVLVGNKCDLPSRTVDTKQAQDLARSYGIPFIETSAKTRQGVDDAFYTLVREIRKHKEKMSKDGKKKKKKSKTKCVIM
T1 sequence (P01116 1-188 isoform P01116-2 G12D): as above

Row | IC50 (KRAS_G12D and cRAF) [nM] | IC50 (KRAS_WT and SOS1) [nM] | IC50 (KRAS-G12D and SOS1) [nM] | Compound
1 | 9950 | > 100000 | 1120 | CN(C)CCCNc1nc(N2C[C@H]3CC[C@@H](C2)N3)c2cc(Cl)c(-c3cc(O)cc4ccccc34)c(F)c2n1 (single isomer, unassigned) [Compound 55a, (S or R) 4-(4-((1R,5S)-3,8-diazabicyclo[3.2.1]octan-3-yl)-6-chloro-2-((3-(dimethylamino)propyl)amino)-8-fluoroquinazolin-7-yl)naphthalen-2-ol]
2 | 6.98 | 28 | 13.6 | Oc1cc(-c2c(Cl)cc3c(N4CC5CCC(C4)N5)nc(OC[C@@]45CCCN4C[C@H](F)C5)nc3c2F)c2ccccc2c1 (single isomer, unassigned) [Compound 176, 4-((R or S)-4-((1R,5S)-3,8-diazabicyclo[3.2.1]octan-3-yl)-6-chloro-8-fluoro-2-((2R,7aS)-2-fluorotetrahydro-1H-pyrrolin-7a(5H)-yl)methoxy)quinazolin-7-yl)naphthalenol formate]
3 | 147 | 2170 | 59.7 | CCN(CC)CCCOc1nc(N2CC3CCC(C2)N3)c2cc(Cl)c(-c3cc(O)cc4ccccc34)c(F)c2n1 (single isomer, unassigned) [Compound 53a, 4-((S or R)-4-((1R,5S)-3,8-diazabicyclo[3.2.1]octan-3-yl)-6-chloro-2-(3-(diethylamino)propoxy)-8-fluoroquinazolin-7-yl)naphthalen-2-ol]
4 | 334 | 6490 | 57.7 | CN1CCC[C@H]1COc1nc(N2CC3CCC(C2)N3)c2cc(Cl)c(-c3c(F)c(O)cc4ccccc34)c(F)c2n1 (single isomer, unassigned) [Compound 195b, (S or R)-4-(4-((1R,5S)-3,8-diazabicyclo[3.2.1]octan-3-yl)-6-chloro-8-fluoro-2-((S)-1-methylpyrrolidin-2-yl)methoxy)quinazolin-7-yl)-3-fluoronaphthalen-2-ol formate]
5 | 202 | 1210 | 43.1 | Oc1cc(-c2c(Cl)cc3c(N4CC5CCC(C4)N5)nc(OCCCN4CCC5(CCOC5)C4)nc3c2F)c2ccccc2c1 (single isomer, unassigned) [Compound 270, (4R or 4S)-4-(2-(3-(2-oxo-7-azaspiro[4.4]nonan-7-yl)propoxy)-4-(1R,5S)-3,8-diazacyclo[3.2.1]octan-3-yl)-6-chloro-8-fluoroquinazolin-7-yl)naphthalen-2-ol diformate]
6 | 303 | 4300 | 104 | C[C@@H]1COC[C@H](C)N1CCCOc1nc(N2CC3CCC(C2)N3)c2cc(Cl)c(-c3cc(O)cc4ccccc34)c(F)c2n1 (single isomer, unassigned) [Compound 175, (R or S)-4-(4-((1R,5S)-3,8-diazabicyclo[3.2.1]octan-3-yl)-6-chloro-2-(3-((3R,5S)-3,5-dimethylmorpholinyl)propoxy)-8-fluoroquinazolin-7-yl)naphthalen-2-ol formate]
7 | 10.7 | 123 | 13.3 | CN1CC2(CC2)C[C@H]1COc1nc(N2CC3CCC(C2)N3)c2cnc(-c3cc(O)cc4ccccc34)c(F)c2n1 [Compound 137, 4-(4-((1R,5S)-3,8-diazabicyclo[3.2.1]octan-3-yl)-8-fluoro-2-((S)-5-methyl-5-azaspiro[2.4]heptan-6-yl)methoxy)pyridin[4,3-d]pyrimidin-7-yl)naphthalen-2-ol diformate]

Row | Compound | IC50 (KRAS_G12D and cRAF) [nM] | IC50 (KRAS_WT and SOS1) [nM] | IC50 (KRAS-G12D and SOS1) [nM]
8 | Oc1cc(-c2c(Cl)cc3c(N4CC5CCC(C4)N5)nc(OCC(F)CN4CCCC4)nc3c2F)c2ccccc2c1 (single isomer, unassigned) [Compound 109a, 4-((S or R)-4-((1R,5S)-3,8-diazabicyclo[3.2.1]octan-3-yl)-6-chloro-8-fluoro-2-((S or R)-2-fluoro-3-(pyrrolidin-1-yl)propoxy)quinazolin-7-yl)naphthalen-2-ol hydrochloride] | 89.3 | 2570 | 27
